Measurements from patent US20060069132A1, “Azolecarboxamide herbicides” (priority 2004, published 2006).

Key:
cocklebur = experiment: Test C pre-/postemergence herbicide test; format: in vivo, Xanthium strumarium; conditions: for Cocklebur plant response rating: 500 g ai/ha
Outline: (§1)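 Pre- and postemergence application, solvent/surfactant formulation; post at 1- to 4-leaf stage (2–18 cm). Greenhouse 12–14 d. Visual rating vs controls, 0 = no effect, 100 = complete control.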

morningglory = experiment: Test C pre-/postemergence herbicide test; format: in vivo, Ipomoea coccinea; parameters: key to Plant response rating, Morningglory: 0 = no effect, 100 = complete control; conditions: for Morningglory plant response rating: Preemergence, 500 g ai/ha, scale 0 to 100, 0 no effect, 100 complete control
Outline: as §1

eastern black nightshade = experiment: Test C pre-/postemergence herbicide test; format: in vivo, Solanum ptycanthum; conditions: for Plant response rating (0 = no effect, 100 = complete control), Nightshade: 62 g ai/ha; for Plant response rating (0 = no effect, 100 = complete control), Nightshade / Plant response rating, Nightshade: preemergence; for Plant response rating, Nightshade: 125 g ai/ha, scale 0 (no effect) to 100 (complete control), visual, 12 to 14 days; for Nightshade plant response rating: Preemergence, 500 g ai/ha, scale 0 to 100, 0 no effect, 100 complete control
Outline: as §1

yellow nutsedge = experiment: Test C pre-/postemergence herbicide test; format: in vivo, Cyperus esculentus; conditions: for Nutsedge, Yellow plant response rating: 500 g ai/ha
Outline: as §1

velvetleaf = experiment: Test A pre-/postemergence herbicide test; format: in vivo, Abutilon theophrasti
Outline: (§2)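 Visual injury rating on a 0–100 scale (0 no effect, 100 complete control) versus untreated controls, about ten days after treatment in greenhouse. Pre: directed soil spray onto seeded sandy loam. Post: spray to runoff on plants 2–10 cm tall at one- to two-leaf stage.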

barnyardgrass [1] = experiment: Test A pre-/postemergence herbicide test; format: in vivo, Echinochloa crus-galli
Outline: as §2

Surinam grass = experiment: Test C pre-/postemergence herbicide test; format: in vivo, Urochloa decumbens; conditions: for Surinam Grass plant response rating: 500 g ai/ha
Outline: as §1

giant foxtail [2] = experiment: Test A pre-/postemergence herbicide test; format: in vivo, Setaria faberi
Outline: as §2

johnsongrass = experiment: Test C pre-/postemergence herbicide test; format: in vivo, Sorghum halepense; conditions: for Johnsongrass plant response rating: 500 g ai/ha
Outline: as §1

barnyardgrass [3] = experiment: Test C flooded paddy test; format: in vivo, Echinochloa crus-galli; conditions: for Plant response rating, Barnyardgrass: 500 g ai/ha, visual rating after 12 to 14 days
Outline: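 Greenhouse test with a 12–14 day hold after application and visual comparison with controls. Emerged plants were 1- to 4-leaf stage (2–18 cm) when sprayed postemergence, and the paddy barnyardgrass was at 2 leaves under flooded conditions. 100 = complete control.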

giant foxtail [4] = experiment: Test C pre-/postemergence herbicide test; format: in vivo, Setaria faberi; conditions: for Foxtail, Giant plant response rating: 500 g ai/ha
Outline: as §1

ducksalad = experiment: Test C flooded paddy test; format: in vivo, Heteranthera limosa; conditions: for Plant response rating, Ducksalad: 500 g ai/ha, visual rating after 12 to 14 days
redroot pigweed = experiment: Test A pre-/postemergence herbicide test; format: in vivo, Amaranthus retroflexus
Outline: as §2

[5] = 125 g ai/ha, scale 0 (no effect) to 100 (complete control), visual, 12 to 14 days, preemergence
[6] = 250 g ai/ha, scale 0 to 100 (0 no effect, 100 complete control), visual, 12 to 14 days, preemergence
[7] = Postemergence, 250 g ai/ha, scale 0 to 100, 0 no effect, 100 complete control
[8] = Preemergence, scale 0 to 100, 0 no effect, 100 complete control
[9] = postemergence, 125 g ai/ha, scale 0 to 100
[10] = postemergence, 62 g ai/ha, scale 0 to 100
[11] = Postemergence, 500 g ai/ha, 0 to 100 scale, 0 no effect, 100 complete control
[12] = Postemergence, 2000 g ai/ha, 0 to 100 scale, 0 no effect, 100 complete control
[13] = Preemergence, 500 g ai/ha, visual rating, 0 to 100 scale (0 no effect, 100 complete control)
[14] = Preemergence, 2000 g ai/ha, visual rating, 0 to 100 scale (0 no effect, 100 complete control)
[15] = 62 g ai/ha, scale 0 to 100 (0 no effect, 100 complete control)
[16] = 125 g ai/ha, scale of 0 to 100, 0 is no effect, 100 is complete control
[17] = 250 g ai/ha, scale of 0 to 100, 0 is no effect, 100 is complete control
[18] = scale 0 to 100 (0 no effect, 100 complete control)
[19] = Postemergence, 250 g ai/ha, 0 to 100 scale, 0 no effect, 100 complete control
[20] = Postemergence, 1000 g ai/ha, 0 to 100 scale, 0 no effect, 100 complete control
[21] = Preemergence, 1000 g ai/ha, visual rating, 0 to 100 scale (0 no effect, 100 complete control)
[22] = preemergence, 250 g ai/ha, visual injury, 0 to 100 scale (0 no effect, 100 complete control)

CCn1nc(C(C)(C)C)cc1C(=O)Nc1cccc(C(C)=NO)c1 [Compound 108]
Plant response rating (0 = no effect, 100 = complete control), Cocklebur (cocklebur; 62 g ai/ha, preemergence): 20 | Plant response rating, Cocklebur (cocklebur; [5]): 30 | Plant response rating, Cocklebur (cocklebur; [6]): 30 | Cocklebur plant response rating (cocklebur; Postemergence, scale 0 to 100): 100 | Plant response rating, Cocklebur (cocklebur; [7]): 100 | Cocklebur plant response rating (cocklebur; [8]): 50 | Plant response rating, Cocklebur (cocklebur; [9]): 80 | Plant response rating, Cocklebur (cocklebur; [10]): 70 | Plant response rating (0 = no effect, 100 = complete control), Morningglory (morningglory; 62 g ai/ha, preemergence): 40 | Morningglory plant response rating (morningglory): 90 | Plant response rating, Morningglory (morningglory; [9]): 60 | Plant response rating, Morningglory (morningglory; [10]): 30 | Plant response rating (0 = no effect, 100 = complete control), Nightshade (eastern black nightshade): 100 | Plant response rating, Nightshade (eastern black nightshade): 100 | Nightshade plant response rating (eastern black nightshade): 100 | Plant response rating (0 = no effect, 100 = complete control), Nutsedge, Yellow (yellow nutsedge; 62 g ai/ha, preemergence): 50 | Plant response rating, Nutsedge, Yellow (yellow nutsedge; [5]): 70 | Nutsedge, Yellow plant response rating (yellow nutsedge; Postemergence, scale 0 to 100): 30 | Plant response rating, Nutsedge, Yellow (yellow nutsedge; [7]): 30 | Nutsedge, Yellow plant response rating (yellow nutsedge; [8]): 80 | Plant response rating, Nutsedge, Yellow (yellow nutsedge; [9]): 30 | Plant response rating, Nutsedge, Yellow (yellow nutsedge; [10]): 20 | Velvetleaf plant response rating (velvetleaf; [11]): 90 | Plant response rating, Velvetleaf (velvetleaf; [12]): 100 | Velvetleaf plant response rating (velvetleaf; [13]): 55 | Velvetleaf plant response rating (velvetleaf; [14]): 90 | Barnyardgrass plant response rating (barnyardgrass [1]; [11]): 85 | Plant response rating, Barnyardgrass (barnyardgrass [1]; [12]): 100 | Barnyardgrass plant response rating (barnyardgrass [1]; [13]): 85 | Barnyardgrass plant response rating (barnyardgrass [1]; [14]): 90 | Plant response rating (0 = no effect, 100 = complete control), Surinam Grass (Surinam grass; 62 g ai/ha, preemergence): 30 | Plant response rating, Surinam Grass (Surinam grass; [5]): 40 | Surinam Grass plant response rating (Surinam grass; Postemergence, scale 0 to 100): 50 | Plant response rating, Surinam Grass (Surinam grass; [7]): 40 | Surinam Grass plant response rating (Surinam grass; [8]): 90 | Plant response rating, Surinam Grass (Surinam grass; [9]): 40 | Plant response rating, Surinam Grass (Surinam grass; [10]): 20 | Foxtail, Giant plant response rating (giant foxtail [2]; [11]): 90 | Plant response rating, Foxtail, Giant (giant foxtail [2]; [12]): 100 | Foxtail, Giant plant response rating (giant foxtail [2]; [13]): 95 | Foxtail, Giant plant response rating (giant foxtail [2]; [14]): 100 | Plant response rating (0 = no effect, 100 = complete control), Johnsongrass (johnsongrass; 62 g ai/ha, preemergence): 60 | Plant response rating, Johnsongrass (johnsongrass; [5]): 100 | Johnsongrass plant response rating (johnsongrass; Postemergence, scale 0 to 100): 90 | Plant response rating, Johnsongrass (johnsongrass; [7]): 70 | Johnsongrass plant response rating (johnsongrass; [8]): 100 | Plant response rating, Johnsongrass (johnsongrass; [9]): 50 | Plant response rating, Johnsongrass (johnsongrass; [10]): 20 | Barnyardgrass plant response rating (barnyardgrass [3]; [15]): 30 | Barnyardgrass plant response rating (barnyardgrass [3]; [16]): 40 | Barnyardgrass plant response rating (barnyardgrass [3]; [17]): 60 | Plant response rating, Barnyardgrass (barnyardgrass [3]; [18]): 70 | Plant response rating (0 = no effect, 100 = complete control), Foxtail, Giant (giant foxtail [4]; 62 g ai/ha, preemergence): 100 | Plant response rating, Foxtail, Giant (giant foxtail [4]; [5]): 100 | Plant response rating, Foxtail, Giant (giant foxtail [4]; [6]): 100 | Foxtail, Giant plant response rating (giant foxtail [4]; Postemergence, scale 0 to 100): 70 | Foxtail, Giant plant response rating (giant foxtail [4]; [8]): 100 | Plant response rating, Foxtail, Giant (giant foxtail [4]; [9]): 50 | Plant response rating, Foxtail, Giant (giant foxtail [4]; [10]): 30 | Ducksalad plant response rating (ducksalad; [15]): 50 | Ducksalad plant response rating (ducksalad; [16]): 70 | Ducksalad plant response rating (ducksalad; [17]): 80 | Plant response rating, Ducksalad (ducksalad; [18]): 90 | Pigweed plant response rating (redroot pigweed; [11]): 100 | Plant response rating, Pigweed (redroot pigweed; [12]): 100 | Pigweed plant response rating (redroot pigweed; [13]): 100 | Pigweed plant response rating (redroot pigweed; [14]): 100

CCn1nc(C(C)(C)C)cc1C(=O)Nc1cccc(S(=O)(=O)C(F)(F)F)c1 [Compound 134]
Plant response rating (0 = no effect, 100 = complete control), Cocklebur (cocklebur; 62 g ai/ha, preemergence): 0 | Plant response rating, Cocklebur (cocklebur; [5]): 0 | Plant response rating, Cocklebur (cocklebur; [6]): 0 | Cocklebur plant response rating (cocklebur; [8]): 0 | Plant response rating (0 = no effect, 100 = complete control), Morningglory (morningglory; 62 g ai/ha, preemergence): 0 | Plant response rating, Morningglory (morningglory; [5]): 0 | Morningglory plant response rating (morningglory): 75 | Plant response rating (0 = no effect, 100 = complete control), Nightshade (eastern black nightshade): 90 | Plant response rating, Nightshade (eastern black nightshade): 95 | Nightshade plant response rating (eastern black nightshade): 100 | Plant response rating (0 = no effect, 100 = complete control), Nutsedge, Yellow (yellow nutsedge; 62 g ai/ha, preemergence): 0 | Plant response rating, Nutsedge, Yellow (yellow nutsedge; [5]): 0 | Nutsedge, Yellow plant response rating (yellow nutsedge; [8]): 0 | Velvetleaf plant response rating (velvetleaf; [19]): 20 | Plant response rating, Velvetleaf (velvetleaf; [20]): 20 | Velvetleaf plant response rating (velvetleaf; [21]): 40 | Velvetleaf plant response rating (velvetleaf; [22]): 15 | Barnyardgrass plant response rating (barnyardgrass [1]; [19]): 30 | Plant response rating, Barnyardgrass (barnyardgrass [1]; [20]): 70 | Barnyardgrass plant response rating (barnyardgrass [1]; [21]): 45 | Barnyardgrass plant response rating (barnyardgrass [1]; [22]): 25 | Plant response rating (0 = no effect, 100 = complete control), Surinam Grass (Surinam grass; 62 g ai/ha, preemergence): 0 | Plant response rating, Surinam Grass (Surinam grass; [5]): 15 | Surinam Grass plant response rating (Surinam grass; [8]): 75 | Foxtail, Giant plant response rating (giant foxtail [2]; [19]): 15 | Plant response rating, Foxtail, Giant (giant foxtail [2]; [20]): 35 | Foxtail, Giant plant response rating (giant foxtail [2]; [21]): 45 | Foxtail, Giant plant response rating (giant foxtail [2]; [22]): 20 | Plant response rating (0 = no effect, 100 = complete control), Johnsongrass (johnsongrass; 62 g ai/ha, preemergence): 0 | Plant response rating, Johnsongrass (johnsongrass; [5]): 40 | Johnsongrass plant response rating (johnsongrass; [8]): 65 | Barnyardgrass plant response rating (barnyardgrass [3]; [15]): 10 | Barnyardgrass plant response rating (barnyardgrass [3]; [16]): 25 | Barnyardgrass plant response rating (barnyardgrass [3]; [17]): 50 | Plant response rating, Barnyardgrass (barnyardgrass [3]; [18]): 50 | Plant response rating (0 = no effect, 100 = complete control), Foxtail, Giant (giant foxtail [4]; 62 g ai/ha, preemergence): 0 | Plant response rating, Foxtail, Giant (giant foxtail [4]; [5]): 0 | Plant response rating, Foxtail, Giant (giant foxtail [4]; [6]): 0 | Foxtail, Giant plant response rating (giant foxtail [4]; [8]): 85 | Ducksalad plant response rating (ducksalad; [15]): 45 | Ducksalad plant response rating (ducksalad; 125 g ai/ha, scale 0 to 100 (0 no effect, 100 complete control)): 70 | Ducksalad plant response rating (ducksalad; [17]): 90 | Plant response rating, Ducksalad (ducksalad; [18]): 90 | Pigweed plant response rating (redroot pigweed; [19]): 85 | Plant response rating, Pigweed (redroot pigweed; [20]): 100 | Pigweed plant response rating (redroot pigweed; [21]): 100 | Pigweed plant response rating (redroot pigweed; [22]): 35
